From patent publication US10729133B2, “Cornfield herbicidal composition and application thereof” (priority 2016, dated 2020)
Values joined by “and” are separate entries in the source; they are usually repeats but may differ in a detail not shown here. Equal entries are not always repeated.

Key:
Assay in all cases: Pot-culture stem and leaf treatment, fresh weight inhibition (Gowing method)
Format in all cases: in vivo
Cirsium setosum = tested on: Cirsium setosum
Source text: (§1) Echinochloa crusgalli, Setaria viridis, Chenopodium album, Amaranthus retrollexus were collected from corn fields in Qingdao of Shandong Province. Sonchus brachyotus were collected from corn fields in Shenyang of Liaoning Province. Rhizoma Cyperi, Convolvulus arvensis were collected from corn fields in Shangqiu of Henan Province. Cirsium setosum were collected from corn fields in Xiantao of Hubei Province.
(§2) The above weeds were cultivated by a pot culture method. […] Full and uniform weed seeds were selected, soaked in warm water at 25° C. for 6 hours, and germinated in a 28° C. biochemical incubator (darkness). The weed seeds that had just germinated were evenly placed on the surface of the soil and then covered with 0.7 cm soil, and cultured in a controllable sunlight greenhouse after being treated with agents. A certain amount of water was added to the enamel pan regularly to keep the soil moist.
(§3) The culture was carried out in a controllable sunlight greenhouse at 18 to 30° C., in natural light, and relative humidity of 57% to 72%.
(§4) The technical materials were all dissolved in acetone, and diluted with an aqueous solution containing 0.1% emulsifier T-80. The dilution is performed as required.
(§5) 3 pots with 20 weed seeds per pot were treated in one treatment with […] per treatment, that is, a total of 60 weeds were treated in one treatment.
(§6) The agents were used for only once in the experiment. In the stage of weeds with 2 leaves and 1 core, the weeds were thinned out to maintain 15 weeds per pot and 45 weeds for each treatment, then continued to be cultured to 5-leaves and 1-core stage of Echinochloa crusgalli and Setaria viridis, and treated.
(§7) The well-cultured weeds were evenly placed on a platform with an area of 0.5 m^2, and a solution of agents was sprayed on the stems and leaves thereof by the 3WP-2000-type walking spray tower at a dosage of 30 kg/ha and at a spray pressure of 0.3 MPa. After all the solution was sprayed, the valve was closed. After 30 seconds, the door of the spray tower was opened, and the nutritional bowl was taken out. Then the valve was opened, and the spray tube was cleaned by spraying 50 ml of water.
(§8) A pot-culture method was employed. For the cultivation of weeds, please refer to the Section 1.1, and “Pesticide guidelines for laboratory bioactivity tests—herbicides”. As to a method for applying agents, please refer to the section 2.3.2, that is, a method for treating stems and leaves was employed.
(§9) A method for investigating absolute number was employed, wherein whole seedlings of survival weeds were cut off with a blade along the soil surface, and the fresh weight of the weeds was weighed with an analytical balance. For dead weeds, the fresh weight thereof was zero.
(§10) The investigation was performed after 20 days of the treatment for only once.
(§11) An optimum ratio of the two active ingredients was determined by the actual control effect, characteristics of herbicides, and balance of a corresponding formula.
(§12) Wherein, in the formula, X represented the fresh weight inhibition rate of A in a dosage of P, and Y represented the fresh weight inhibition rate of the active ingredient B in a dosage of Q.

Rhizoma Cyperi = tested on: Rhizoma Cyperi
Source text: as §1, §2, §3, §4, §5, §6, §7, §8, §9, §10, §11, §12

Echinochloa crusgalli = tested on: Echinochloa crusgalli
Source text: as §1, §2, §3, §4, §5, §6, §7, §8, §9, §10, §11, §12

Setaria viridis = tested on: Setaria viridis
Source text: as §1, §2, §3, §4, §5, §6, §7, §8, §9, §10, §11, §12

Convolvulus arvensis = tested on: Convolvulus arvensis
Source text: as §1
(§13) The above weeds were cultivated by a pot culture method. […] Full and uniform weed seeds were selected, soaked in warm water at 25° C. for 6 hours, and germinated in a 28° C. biochemical incubator (darkness). […] A certain amount of water was added to the enamel pan regularly to keep the soil moist.
as §4, §5, §6, §7, §8, §9, §10, §12

Chenopodium album = conditions: for actual fresh weight inhibition rate (%): Chenopodium album
Source text: as §1, §13, §4, §5, §6, §7, §8, §9, §10, §12

Sonchus brachyotus = tested on: Sonchus brachyotus
Source text: as §1, §13, §4, §5, §6, §7, §8, §9, §10, §12

Amaranthus retrollexus = conditions: Amaranthus retroflexus
Source text: as §1, §13, §4, §5, §6, §7, §8, §9, §10, §12

[1] = dosage of active ingredient 45 g/hm^2
[2] = dosage of active ingredient 90 g/hm^2
[3] = dosage of active ingredient 180 g/hm^2
[4] = dosage of active ingredient 112.5 g/hm^2
[5] = dosage of active ingredient 225 g/hm^2
[6] = dosage of active ingredient 450 g/hm^2

## CCn1ncc(C(=O)c2ccc(S(C)(=O)=O)c(COCC(F)(F)F)c2Cl)c1OC(=O)c1cn(C)nc1C [A1]
Cirsium setosum; dosage 45 g/hm^2
  actual fresh weight inhibition rate: 19.3%
Cirsium setosum; dosage 90 g/hm^2
  actual fresh weight inhibition rate: 20.4%
Cirsium setosum; dosage 180 g/hm^2
  actual fresh weight inhibition rate: 38.5%
Rhizoma Cyperi; dosage 45 g/hm^2
  actual fresh weight inhibition rate: 22.8%
Rhizoma Cyperi; dosage 90 g/hm^2
  actual fresh weight inhibition rate: 31.1%
Rhizoma Cyperi; dosage 180 g/hm^2
  actual fresh weight inhibition rate: 44.2%
Echinochloa crusgalli; dosage 45 g/hm^2
  actual fresh weight inhibition rate: 54.2% and 42.4%
Echinochloa crusgalli; dosage 90 g/hm^2
  actual fresh weight inhibition rate: 82.1% and 83.5%
Echinochloa crusgalli; dosage 180 g/hm^2
  actual fresh weight inhibition rate: 100%
Setaria viridis; dosage 45 g/hm^2
  actual fresh weight inhibition rate: 45.7% and 42.1% and 39.9%
Setaria viridis; dosage 90 g/hm^2
  actual fresh weight inhibition rate: 81.6% and 80.3% and 81.2%
Setaria viridis; dosage 180 g/hm^2
  actual fresh weight inhibition rate: 100%
Convolvulus arvensis; dosage 45 g/hm^2
  actual fresh weight inhibition rate: 23.2%
Convolvulus arvensis; dosage 90 g/hm^2
  actual fresh weight inhibition rate: 38.9%
Convolvulus arvensis; dosage 180 g/hm^2
  actual fresh weight inhibition rate: 48.2%
Chenopodium album; [1]
  actual fresh weight inhibition rate (%): 19.1%
Chenopodium album; [2]
  actual fresh weight inhibition rate (%): 30.2%
Chenopodium album; [3]
  actual fresh weight inhibition rate (%): 48.7%
Chenopodium album; dosage 45 g/hm^2
  actual fresh weight inhibition rate: 19.1%
Chenopodium album; dosage 90 g/hm^2
  actual fresh weight inhibition rate: 30.2%
Chenopodium album; dosage 180 g/hm^2
  actual fresh weight inhibition rate: 48.7%
Sonchus brachyotus; dosage 45 g/hm^2
  actual fresh weight inhibition rate: 32.1%
Sonchus brachyotus; dosage 90 g/hm^2
  actual fresh weight inhibition rate: 53.2%
Sonchus brachyotus; dosage 180 g/hm^2
  actual fresh weight inhibition rate: 78.8%
Amaranthus retrollexus; [1]
  actual fresh weight inhibition rate (%): 45.7%
Amaranthus retrollexus; [2]
  actual fresh weight inhibition rate (%): 81.6%
Amaranthus retrollexus; [3]
  actual fresh weight inhibition rate (%): 100%

## Nc1c(Cl)c(F)nc(OCC(=O)O)c1Cl [fluroxypyr]
Cirsium setosum; dosage 60 g/hm^2
  actual fresh weight inhibition rate: 56.2%
Cirsium setosum; dosage 120 g/hm^2
  actual fresh weight inhibition rate: 79.2%
Cirsium setosum; dosage 240 g/hm^2
  actual fresh weight inhibition rate: 95.4%
Convolvulus arvensis; dosage 60 g/hm^2
  actual fresh weight inhibition rate: 63.2%
Convolvulus arvensis; dosage 120 g/hm^2
  actual fresh weight inhibition rate: 78.2%
Convolvulus arvensis; dosage 240 g/hm^2
  actual fresh weight inhibition rate: 92.2%

## CCCCCCCC(=O)Oc1c(Br)cc(C#N)cc1Br [bromoxynil octanoate]
Convolvulus arvensis; dosage 112.5 g/hm^2
  actual fresh weight inhibition rate: 58.9%
Convolvulus arvensis; dosage 225 g/hm^2
  actual fresh weight inhibition rate: 79.2%
Convolvulus arvensis; dosage 450 g/hm^2
  actual fresh weight inhibition rate: 98.1%
Sonchus brachyotus; dosage 112.5 g/hm^2
  actual fresh weight inhibition rate: 56.2%
Sonchus brachyotus; dosage 225 g/hm^2
  actual fresh weight inhibition rate: 78.3%
Sonchus brachyotus; dosage 450 g/hm^2
  actual fresh weight inhibition rate: 99.2%

## CCc1cccc(C)c1N(C(=O)CCl)[C@@H](C)COC [s-metolachlor]
Echinochloa crusgalli; dosage 375 g/hm^2
  actual fresh weight inhibition rate: 2.5%
Echinochloa crusgalli; dosage 750 g/hm^2
  actual fresh weight inhibition rate: 3.4%
Echinochloa crusgalli; dosage 1500 g/hm^2
  actual fresh weight inhibition rate: 5.6%
Setaria viridis; dosage 375 g/hm^2
  actual fresh weight inhibition rate: 2.9%
Setaria viridis; dosage 750 g/hm^2
  actual fresh weight inhibition rate: 3.9%
Setaria viridis; dosage 1500 g/hm^2
  actual fresh weight inhibition rate: 6.2%

## CC(C)c1nn(C(=O)NC(C)(C)C)c(=O)n1N [amicarbazone]
Chenopodium album; [4]
  actual fresh weight inhibition rate (%): 36.5%
Chenopodium album; [5]
  actual fresh weight inhibition rate (%): 45.9%
Chenopodium album; [6]
  actual fresh weight inhibition rate (%): 64.3%
Amaranthus retrollexus; [4]
  actual fresh weight inhibition rate (%): 21.6%
Amaranthus retrollexus; [5]
  actual fresh weight inhibition rate (%): 31.9%
Amaranthus retrollexus; [6]
  actual fresh weight inhibition rate (%): 41.8%

## CSc1nnc(C(C)(C)C)c(=O)n1N [metribuzin]
Echinochloa crusgalli; dosage 112.5 g/hm^2
  actual fresh weight inhibition rate: 22.4%
Echinochloa crusgalli; dosage 225 g/hm^2
  actual fresh weight inhibition rate: 32.1%
Echinochloa crusgalli; dosage 450 g/hm^2
  actual fresh weight inhibition rate: 42.5%
Setaria viridis; dosage 112.5 g/hm^2
  actual fresh weight inhibition rate: 21.5%
Setaria viridis; dosage 225 g/hm^2
  actual fresh weight inhibition rate: 33.6%
Setaria viridis; dosage 450 g/hm^2
  actual fresh weight inhibition rate: 43.5%

## COc1cc(OC)nc(NC(=O)NS(=O)(=O)c2ncccc2C(=O)N(C)C)n1 [nicosulfuron]
Echinochloa crusgalli; dosage 15 g/hm^2
  actual fresh weight inhibition rate: 33.1%
Echinochloa crusgalli; dosage 30 g/hm^2
  actual fresh weight inhibition rate: 74.5%
Echinochloa crusgalli; dosage 60 g/hm^2
  actual fresh weight inhibition rate: 100%
Setaria viridis; dosage 15 g/hm^2
  actual fresh weight inhibition rate: 45.7%
Setaria viridis; dosage 30 g/hm^2
  actual fresh weight inhibition rate: 79.6%
Setaria viridis; dosage 60 g/hm^2
  actual fresh weight inhibition rate: 100%

## COC(=O)c1c(Cl)nn(C)c1S(=O)(=O)NC(=O)Nc1nc(OC)cc(OC)n1 [halosulfuron-methyl]
Rhizoma Cyperi; dosage 15 g/hm^2
  actual fresh weight inhibition rate: 67.2%
Rhizoma Cyperi; dosage 30 g/hm^2
  actual fresh weight inhibition rate: 89.3%
Rhizoma Cyperi; dosage 60 g/hm^2
  actual fresh weight inhibition rate: 100%

## CCNc1nc(Cl)nc(NC(C)C)n1 [atrazine]
Echinochloa crusgalli; dosage 375 g/hm^2
  actual fresh weight inhibition rate: 20.3%
Echinochloa crusgalli; dosage 750 g/hm^2
  actual fresh weight inhibition rate: 34.2%
Echinochloa crusgalli; dosage 1500 g/hm^2
  actual fresh weight inhibition rate: 45.1%
Setaria viridis; dosage 375 g/hm^2
  actual fresh weight inhibition rate: 21.3%
Setaria viridis; dosage 750 g/hm^2
  actual fresh weight inhibition rate: 31.4%
Setaria viridis; dosage 1500 g/hm^2
  actual fresh weight inhibition rate: 41.4%

## CC(C)N1C(=O)c2ccccc2NS1(=O)=O [bentazone]
Rhizoma Cyperi; dosage 150 g/hm^2
  actual fresh weight inhibition rate: 65.3%
Rhizoma Cyperi; dosage 300 g/hm^2
  actual fresh weight inhibition rate: 83.5%
Rhizoma Cyperi; dosage 600 g/hm^2
  actual fresh weight inhibition rate: 92.1%
Chenopodium album; dosage 150 g/hm^2
  actual fresh weight inhibition rate: 56.5%
Chenopodium album; dosage 300 g/hm^2
  actual fresh weight inhibition rate: 75.9%
Chenopodium album; dosage 600 g/hm^2
  actual fresh weight inhibition rate: 94.3%

## CCNc1nc(Cl)nc(NC(C)(C)C)n1 [terbuthylazine]
Echinochloa crusgalli; dosage 375 g/hm^2
  actual fresh weight inhibition rate: 31.4%
Echinochloa crusgalli; dosage 750 g/hm^2
  actual fresh weight inhibition rate: 42.1%
Echinochloa crusgalli; dosage 1500 g/hm^2
  actual fresh weight inhibition rate: 51.7%
Setaria viridis; dosage 375 g/hm^2
  actual fresh weight inhibition rate: 25.2%
Setaria viridis; dosage 750 g/hm^2
  actual fresh weight inhibition rate: 30.6%
Setaria viridis; dosage 1500 g/hm^2
  actual fresh weight inhibition rate: 42.3%

## COc1c(Cl)ccc(Cl)c1C(=O)O [dicamba]
Convolvulus arvensis; dosage 75 g/hm^2
  actual fresh weight inhibition rate: 64.4%
Convolvulus arvensis; dosage 150 g/hm^2
  actual fresh weight inhibition rate: 78.9%
Convolvulus arvensis; dosage 300 g/hm^2
  actual fresh weight inhibition rate: 92.8%
Chenopodium album; dosage 75 g/hm^2
  actual fresh weight inhibition rate: 66.2%
Chenopodium album; dosage 150 g/hm^2
  actual fresh weight inhibition rate: 85.3%
Chenopodium album; dosage 300 g/hm^2
  actual fresh weight inhibition rate: 100%

## O=C(Nc1ccc(F)cc1F)c1cccnc1Oc1cccc(C(F)(F)F)c1 [diflufenican]
Echinochloa crusgalli; dosage 75 g/hm^2
  actual fresh weight inhibition rate: 7.2%
Echinochloa crusgalli; dosage 150 g/hm^2
  actual fresh weight inhibition rate: 9.4%
Echinochloa crusgalli; dosage 300 g/hm^2
  actual fresh weight inhibition rate: 10.3%
Setaria viridis; dosage 75 g/hm^2
  actual fresh weight inhibition rate: 3.9%
Setaria viridis; dosage 150 g/hm^2
  actual fresh weight inhibition rate: 8.3%
Setaria viridis; dosage 300 g/hm^2
  actual fresh weight inhibition rate: 10.5%

## CCCCOCN(C(=O)CCl)c1c(CC)cccc1CC [butachlor]
Echinochloa crusgalli; dosage 375 g/hm^2
  actual fresh weight inhibition rate: 2.4%
Echinochloa crusgalli; dosage 750 g/hm^2
  actual fresh weight inhibition rate: 3.9%
Echinochloa crusgalli; dosage 1500 g/hm^2
  actual fresh weight inhibition rate: 5.4%
Setaria viridis; dosage 375 g/hm^2
  actual fresh weight inhibition rate: 2.7%
Setaria viridis; dosage 750 g/hm^2
  actual fresh weight inhibition rate: 3.8%
Setaria viridis; dosage 1500 g/hm^2
  actual fresh weight inhibition rate: 5.9%
